Results: patent US20190151329A1, “THERAPEUTIC USE OF DIAMINOPHENOTHIAZINES” (WisTa Laboratories Ltd., priority 2007, published 2019)
Read-outs that look alike come from different tables or passages of the source.

Experiments:
[1] = rats; IV; within 2 minutes; cited from earlier work
[2] = Pig single oral dose pharmacokinetic study (blood and brain); format: in vivo, pigs; details: single oral 20 mg/kg
Description: Finally, a comparison was made between the compartment predictions and the results from an oral study in which pigs were administered a single 20 mg/kg dose, and brain levels of MT were determined. […] Blood (0.5, 1, 2, 4, 8, 12, 24 and 48 h) and urine (1, 2, 3, 4, 5, 6, 7, 8, 12, and 24 h) were collected at regular timepoints up to 48 hrs. Two animals were sacrificed at each of 1, 8, 24 and 48 h post dose and brain samples retained. Pharmacokinetic evaluation of the free base of MTC was performed on whole blood and brain tissue samples. Two batches of brain tissue sample were extracted for each animal and analysed essentially as described by Peter et al (2000).
Brain tissue (500 mg) was vortexed and then extracted with dichloroethane (5 ml) and the organic phase taken to dryness under nitrogen. The extract was taken up with methanol and separated by reverse-phase HPLC with ultraviolet detection.

[3] = cited from earlier work
[4] = cited from earlier work; for L-MT urinary excretion rate / Ox-MT urinary excretion rate: human, 10 mg MTC oral
[5] = repeat dose 15 mg/24 hr, day 14
[6] = repeat dose 15 mg/24 hr, day 21
[7] = repeat dose 300 mg/24 hr, day 7
[8] = repeat dose 300 mg/24 hr, day 14
[9] = repeat dose 300 mg/24 hr, day 21

In the case of `CN(C)c1ccc2nc3ccc(=[N+](C)C)cc-3sc2c1` [MTC, methylthioninium chloride], the “dose recovered from the major organs” value [1] is given as “approximately 25%”, the half-life ([2]; brain, read-out: terminal elimination half-life, brain (converted)) is given as 23.5 h and the half-life ([2]; whole blood, read-out: terminal elimination half-life, blood (converted)) is given as 23.5 h. For the same compound, the “24 hr urinary excretion, L-MT (summary line)” value ([3]; repeat dose 15 mg/24 hr) was 7.2 mg, the “24 hr urinary excretion, Ox-MT (summary line)” value ([3]; repeat dose 15 mg/24 hr) was 5.8 mg and the “% of total urinary excretion, L-MT” value ([3]; repeat dose 15 mg/24 hr) was 55.3%. For the same compound, the “% of total urinary excretion, Ox-MT” value ([3]; repeat dose 15 mg/24 hr) was 44.8%, the “F (apparent bioavailability), L-MT” value ([3]; repeat dose 15 mg/24 hr) was 0.48 and the “F (apparent bioavailability), Ox-MT” value ([3]; repeat dose 15 mg/24 hr) was 0.39. For the same compound, the “24-hr urinary excretion, L-MT” value ([3]; repeat dose 15 mg/24 hr, day 7) was 7.2 mg, the “24-hr urinary excretion, Ox-MT” value ([3]; repeat dose 15 mg/24 hr, day 7) was 6.1 mg and the “24-hr urinary excretion, L-MT” value [3, 5] was 8 mg. The “24-hr urinary excretion, Ox-MT” value [3, 5] was 5.3 mg, the “24-hr urinary excretion, L-MT” value [3, 6] was 6.4 mg and the “24-hr urinary excretion, Ox-MT” value [3, 6] was 6.1 mg. For the same compound, the “24 hr urinary excretion, L-MT (summary line)” value ([3]; repeat dose 300 mg/24 hr) was 69.2 mg, the “24 hr urinary excretion, Ox-MT (summary line)” value ([3]; repeat dose 300 mg/24 hr) was 43.4 mg and the “% of total urinary excretion, L-MT” value ([3]; repeat dose 300 mg/24 hr) was 61.5%. The “% of total urinary excretion, Ox-MT” value ([3]; repeat dose 300 mg/24 hr) was 38.6%, the “F (apparent bioavailability), L-MT” value ([3]; repeat dose 300 mg/24 hr) was 0.23 and the “F (apparent bioavailability), Ox-MT” value ([3]; repeat dose 300 mg/24 hr) was 0.14. For the same compound, the “24-hr urinary excretion, L-MT” value [3, 7] was 75.6 mg, the “24-hr urinary excretion, Ox-MT” value [3, 7] was 43.9 mg and the “24-hr urinary excretion, L-MT” value [3, 8] was 71.6 mg. For the same compound, the “24-hr urinary excretion, Ox-MT” value [3, 8] was 41.1 mg, the “24-hr urinary excretion, L-MT” value [3, 9] was 60.4 mg and the “24-hr urinary excretion, Ox-MT” value [3, 9] was 45.2 mg. The “% of total urinary excretion, L-MT” value ([3]; single dose 25 mg) was 15.8%, the “% of total urinary excretion, Ox-MT” value ([3]; single dose 25 mg) was 84.2% and the “F (apparent bioavailability), L-MT” value ([3]; single dose 25 mg) was 0.11. For the same compound, the “F (apparent bioavailability), Ox-MT” value ([3]; single dose 25 mg) was 0.60, the “F (apparent bioavailability), Total-MT” value ([3]; single dose 25 mg) was 0.71 and the “urinary excretion, L-MT” value ([3]; single dose 25 mg) was 2.8 mg. The “urinary excretion, Ox-MT” value ([3]; single dose 25 mg) was 14.9 mg, the “urinary excretion, Total-MT” value ([3]; single dose 25 mg) was 17.7 mg and the “% of total urinary excretion, L-MT” value ([3]; single dose 50 mg) was 8.8%. The “% of total urinary excretion, Ox-MT” value ([3]; single dose 50 mg) was 91.2%, the “F (apparent bioavailability), L-MT” value ([3]; single dose 50 mg) was 0.054 and the “F (apparent bioavailability), Ox-MT” value ([3]; single dose 50 mg) was 0.56. The “F (apparent bioavailability), Total-MT” value ([3]; single dose 50 mg) was 0.62, the “urinary excretion, L-MT” value ([3]; single dose 50 mg) was 2.7 mg and the “urinary excretion, Ox-MT” value ([3]; single dose 50 mg) was 28.1 mg. The “urinary excretion, Total-MT” value ([3]; single dose 50 mg) was 30.8 mg, the “% of total urinary excretion, L-MT” value ([3]; single dose 100 mg) was 15.2% and the “% of total urinary excretion, Ox-MT” value ([3]; single dose 100 mg) was 84.8%. The “F (apparent bioavailability), L-MT” value ([3]; single dose 100 mg) was 0.060, the “F (apparent bioavailability), Ox-MT” value ([3]; single dose 100 mg) was 0.34 and the “F (apparent bioavailability), Total-MT” value ([3]; single dose 100 mg) was 0.40. The “urinary excretion, L-MT” value ([3]; single dose 100 mg) was 6 mg, the “urinary excretion, Ox-MT” value ([3]; single dose 100 mg) was 33.5 mg and the “urinary excretion, Total-MT” value ([3]; single dose 100 mg) was 39.5 mg. For the same compound, the “terminal elimination half-life deduced by DiSanto and Wagner” value ([4]; from urinary excretion data) was 15 to 16.5 h, the “L-MT urinary excretion rate” value ([4]; time 0.5 hr (mid-time 0.25 hr)) was 14.01 µg/h and the “Ox-MT urinary excretion rate” value ([4]; time 0.5 hr (mid-time 0.25 hr)) was 2.31 µg/h. The “L-MT urinary excretion rate” value ([4]; time 1 hr (mid-time 0.75 hr)) was 385.06 µg/h, the “Ox-MT urinary excretion rate” value ([4]; time 1 hr (mid-time 0.75 hr)) was 20.59 µg/h and the “L-MT urinary excretion rate” value ([4]; time 2 hr (mid-time 1.5 hr)) was 659.14 µg/h. For the same compound, the “Ox-MT urinary excretion rate” value ([4]; time 2 hr (mid-time 1.5 hr)) was 38.66 µg/h, the “L-MT urinary excretion rate” value ([4]; time 3 hr (mid-time 2.5 hr)) was 474.29 µg/h and the “Ox-MT urinary excretion rate” value ([4]; time 3 hr (mid-time 2.5 hr)) was 50.56 µg/h. The “L-MT urinary excretion rate” value ([4]; time 4 hr (mid-time 3.5 hr)) was 384.43 µg/h, the “Ox-MT urinary excretion rate” value ([4]; time 4 hr (mid-time 3.5 hr)) was 40.66 µg/h and the “L-MT urinary excretion rate” value ([4]; time 6 hr (mid-time 5 hr)) was 290.50 µg/h. For the same compound, the “Ox-MT urinary excretion rate” value ([4]; time 6 hr (mid-time 5 hr)) was 53.01 µg/h, the “L-MT urinary excretion rate” value ([4]; time 9 hr (mid-time 7.5 hr)) was 120.29 µg/h and the “Ox-MT urinary excretion rate” value ([4]; time 9 hr (mid-time 7.5 hr)) was 42.86 µg/h. The “L-MT urinary excretion rate” value ([4]; time 24 hr (mid-time 16.5 hr)) was 78.72 µg/h, the “Ox-MT urinary excretion rate” value ([4]; time 24 hr (mid-time 16.5 hr)) was 37.99 µg/h and the “L-MT urinary excretion rate” value ([4]; time 33 hr (mid-time 28.5 hr)) was 41.87 µg/h.
